The conditions of data set [1]: the molecule shown is the open-chain precursor, other bond, hv 302 nm (tetrazole-alkene photocycloaddition).
The test system of a further data set is HeLa cells. Description: Cellular uptake study by fluorescent microscopy. The data set is classed as cell-based. The following applies: 100 μM peptide, 4 hours, 37 °C, DAPI filter. As for the experimental part:
To assess whether the stapled peptides are capable of penetrating cell membrane, we took advantage of the intrinsic fluorescence of the pyrazoline cross-linkers and monitored the stapled peptide cellular uptake by fluorescent microscopy. […] After incubating HeLa cells with 100 μM of peptide 13 for 4 hours in a 37° C. CO2 incubator, the cells were washed twice with PBS before fixing with 4% paraformaldehyde and the subcellular distribution of peptide 13 was examined by fluorescent microscopy.
Cellular Uptake Study: HeLa cells cultured on cover slips were treated with 100 μM of peptide 13 or control peptide 18 in 2% DMSO serum-free DMEM medium for 4 hr in a 37° C., 5% CO2 incubator. In preparation for fixation, medium was aspirated and the cells were washed twice with PBS. The cover slips were treated to a freshly prepared 4% paraformaldehyde/PBS solution for 10˜15 min, washed twice with PBS, and quenched with 50 mM NH4Cl for 10 minutes. After washing with PBS twice, the cover-slip was flipped and placed on top of microscopy glass containing in situ-frame and PBS buffer to make a sealed sample chamber. The images were acquired on a Zeiss Axioimager motorized fluorescence microscope. DAPI filter (ex 365 nm, em 445±25 nm) was used in acquiring fluorescence images. All image acquisitions and processing were performed under identical conditions.

The nature of data set [2]: Far-UV circular dichroism, percent helicity. The data set is classed as physicochemical. The following applies: CD in trifluoroethanol at 25 °C, from mean residue ellipticity at 208 nm. As for the experimental part:
(§1) To examine the stapling effect on peptide secondary structure, we measured the far-UV circular dichroism (CD) spectra of the stapled peptides in trifluoroethanol (TFE) at 25° C. Because the tetrazoles in the linear peptides are labile to the CD scanning light (short wavelength UV light), we prepared a photo stable control peptide, Ac-Val-Lys(Ac)-Leu-Aib-Val-Lys(Ac)-Leu-NH2 (SEQ ID NO:1) (17; Ac=acetyl; Aib=amino isobutyric acid) as a linear surrogate. […] The percent helicity of 17 was determined to be 53% on the basis of mean residue ellipticity (MRE) at 208 nm. […] To further characterize the stability derived from the stapling, we measured thermal melting point (Tm) of the most helical peptide 16 by following its ellipticity over a wide temperature range (20-85° C.), and compared it to that of the linear photo stable peptide 17 (FIG. 5 (b)).
Circular Dichroism: CD spectra were obtained using 1-mm pathlength cuvettes on a JASCO J-715 instrument at 25° C. The instrument scan range was set at 190 to 250 nm. The scan rate was set at 50 nm/min, the response time was set at 2 sec, and the bandwidth was set at 1 nm. The spectra were the averages of two scans. For the measurement of percent helicity, peptides were dissolved in 100% trifluoroethanol (TFE); for the Tm determination, 20% TFE/H2O were used as the solvent. The percent helicity was calculated by using the following equation: […]
(Circular dichroism is the unequal absorption of left and right circularly polarised light.)

Data set [3] in a line: Thermal melting point by CD ellipticity over 20-85 °C. The format is physicochemical. The following applies: for melting temperature (Tm): 100 μM peptide in 20% TFE/H2O, 20-85 °C. As for the experimental part: as §1
Circular Dichroism: CD spectra were obtained using 1-mm pathlength cuvettes on a JASCO J-715 instrument at 25° C. The instrument scan range was set at 190 to 250 nm. The scan rate was set at 50 nm/min, the response time was set at 2 sec, and the bandwidth was set at 1 nm. The spectra were the averages of two scans. For the measurement of percent helicity, peptides were dissolved in 100% trifluoroethanol (TFE); for the Tm determination, 20% TFE/H2O were used as the solvent. The percent helicity was calculated by using the following equation:
[formula] The melting temperature (Tm) was determined by following a reported procedure. Briefly, a sample of 100 μM peptide in 20% TFE/H2O in an 1-mm pathlength cuvette was scanned at various temperatures from 20° C. to 85° C. (5-degree intervals) with an equilibration time of 3 min and a heating rate of 60° C./hr. The θ222 MRE data was normalized by setting the maximum θ222 MRE to 100% and the minimum θ222 MRE to 0.

For data set [4] the following is noted: the molecule shown is the open-chain precursor, other bond, 28-membered ring, hv 302 nm, 10 min, 0.15 mM.
The mark [5] stands for this setting: 28-membered ring, MeCN, 0.15 mM.

Like-named read-outs stand apart in the source and are kept apart here. *1 amine or outer side, *2 acyl side, *3 side chain or, on linkers, in order; H or OH if unused. Where a SMILES comes first, the peptide text is derived from it. Bridges are numbered along the chain shown (N, C = ends). [ ]: non-standard residue; d: D form. The star is where a group is joined. X1 = CN(C)c1ccc(N2N=C(C(=O)[*:2])CC2(C)C(=O)[*:1])cc1; X5 = COc1ccc(N2N=C(C(=O)[*:2])CC2(C)C(=O)[*:1])cc1; X3 = COc1ccc(N2N=C(C(=O)[*:2])CC2C(=O)[*:1])cc1; X4 = CC1(C(=O)[*:1])CC(C(=O)[*:2])=NN1c1ccccc1; X2 = COc1ccc(N2N=C(C(=O)*)CC2C(N)=O)cc1; Aib = CC(C)(N)C(=O)O

Regarding “Ac-Val-Lys(acryloyl)-Leu-Aib-Val-Lys(2-(4-methoxyphenyl)-2H-tetrazole-5-carbonyl)-Leu-NH2?”, the ring closure, yield after HPLC in data set [1] (setting [5]) came to 64%. Take `COc1ccc(N2N=C(C(=O)NCCCC[C@H](NC(=O)[C@@H](NC(=O)C(C)(C)NC(=O)[C@H](CC(C)C)NC(=O)[C@H](CCCCNC(C)=O)NC(=O)[C@@H](NC(C)=O)C(C)C)C(C)C)C(=O)N[C@@H](CC(C)C)C(N)=O)CC2C(N)=O)cc1` (stereo partly drawn) [Peptide 18, Ac-Val-Lys(Pyr)-Leu-Aib-Val-Lys(Ac)-Leu-NH2, reference compound] (Ac-VK(Ac)L[Aib]VK(X2)L-NH2): the “cellular uptake (intracellular fluorescence)” value in the data set with HeLa cells was “did not yield cellular fluorescent pattern”. `CC(=O)N[C@H](C(=O)N[C@H]1CCCCNC(=O)C2(C)CC(=NN2c2ccccc2)C(=O)NCCCC[C@@H](C(=O)N[C@@H](CC(C)C)C(N)=O)NC(=O)[C@H](C(C)C)NC(=O)C(C)(C)NC(=O)[C@H](CC(C)C)NC1=O)C(C)C` (some centres unmarked) [Peptide 11] (Ac-VKL[Aib]VKL-NH2; linker 2-6 via X4) displayed a percent helicity in data set [2] of 51%. In the case of `CC(=O)N[C@H](C(=O)N[C@H]1CCCCNC(=O)C2(C)CC(=NN2c2ccc(N(C)C)cc2)C(=O)NCCCC[C@@H](C(=O)N[C@@H](CC(C)C)C(N)=O)NC(=O)[C@H](C(C)C)NC(=O)C(C)(C)NC(=O)[C@H](CC(C)C)NC1=O)C(C)C` (some centres unmarked) [Peptide 16] (Ac-VKL[Aib]VKL-NH2; linker 2-6 via X1), the “melting temperature (Tm)” value in data set [3] was found to be 63 °C. Besides, in data set [3] (stapled 16 vs linear 17), the “increase in Tm versus linear peptide 17” value was 15 °C. In data set [2], this molecule gave a percent helicity of 64%. Molecule “Ac-Val-Lys(acryloyl)-Leu-Aib-Val-Lys(2-(4-dimethylaminophenyl)-2H-tetrazole-5-carbonyl)-Leu-NH2?” gave a ring closure, yield after HPLC in data set [1] (setting [5]) of 64%. Turning to “Ac-Val-Orn(methacryloyl)-Leu-Aib-Val-Orn(2-phenyl-2H-tetrazole-5-carbonyl)-Leu-NH2?”, the ring closure, yield after HPLC in data set [1] (26-membered ring, MeCN, 0.15 mM) was found to be 15%. As for “Ac-Val-Orn(methacryloyl)-Leu-Aib-Val-Orn(4-(2-phenyl-2H-tetrazol-5-yl)benzoyl)-Leu-NH2?”, in data set [1] (30-membered ring, MeCN, 0.15 mM), the ring closure, yield after HPLC came out at 15%.

Molecule “Ac-Val-Lys(methacryloyl)-Leu-Aib-Val-Lys(2-(4-methoxyphenyl)-2H-tetrazole-5-carbonyl)-Leu-NH2?” displayed a ring closure, yield after HPLC in data set [1] (setting [5]) of 53%.

As for “Ac-Leu-Thr-Phe-Lys(methacryloyl)-His-Tyr-Trp-Ala-Gln-Leu-Lys(N-(4-methoxy)phenyl-tetrazole)-Ser-NH2”, the ring closure, yield after HPLC in data set [1] turned out to be 74%. In the case of “Ac-Val-Lys(methacryloyl)-Leu-Aib-Val-Lys(2-(4-dimethylaminophenyl)-2H-tetrazole-5-carbonyl)-Leu-NH2?”, the ring closure, conversion was determined as 43% in data set [4] (DCM); 86% in data set [4] (EtOAc); 92% in data set [4] (EtOH); 87% in data set [4] (MeCN); 88% in data set [4] (iPrOH). This molecule had a ring closure, yield after HPLC in data set [1] (setting [5]) of 94%. For the molecule `CC(=O)NCCCC[C@H](NC(=O)[C@@H](NC(C)=O)C(C)C)C(=O)N[C@@H](CC(C)C)C(=O)NC(C)(C)C(=O)N[C@H](C(=O)N[C@@H](CCCCNC(C)=O)C(=O)N[C@@H](CC(C)C)C(N)=O)C(C)C` [Peptide 17, Ac-Val-Lys(Ac)-Leu-Aib-Val-Lys(Ac)-Leu-NH2, reference compound] (Ac-VK(Ac)L[Aib]VK(Ac)L-NH2), in data set [3], the “melting temperature (Tm)” value came out at 48 °C. In addition, the percent helicity in data set [2] stood at 53%. For “Ac-Val-Lys(methacryloyl)-Leu-Aib-Val-Lys(4-(2-phenyl-2H-tetrazol-5-yl)benzoyl)-Leu-NH2?”, in data set [1] (32-membered ring, MeCN, 0.15 mM), the ring closure, yield after HPLC was 38%.

In turn, `COc1ccc(N2N=C3CC2(C)C(=O)NCCCC[C@H](NC(=O)[C@@H](NC(C)=O)C(C)C)C(=O)N[C@@H](CC(C)C)C(=O)NC(C)(C)C(=O)N[C@@H](C(C)C)C(=O)N[C@H](C(=O)N[C@@H](CC(C)C)C(N)=O)CCCCNC3=O)cc1` (some centres unmarked) [Peptide 14] (Ac-VKL[Aib]VKL-NH2; linker 2-6 via X5) displayed a percent helicity in data set [2] of 51%. `COc1ccc(N2N=C3CC2C(=O)NCCCC[C@H](NC(=O)[C@@H](NC(C)=O)C(C)C)C(=O)N[C@@H](CC(C)C)C(=O)NC(C)(C)C(=O)N[C@@H](C(C)C)C(=O)N[C@H](C(=O)N[C@@H](CC(C)C)C(N)=O)CCCCNC3=O)cc1` (some centres unmarked) [Peptide 13] (Ac-VKL[Aib]VKL-NH2; linker 2-6 via X3): the “cellular uptake (intracellular fluorescence)” value in the data set with HeLa cells was “punctuated fluorescence was observed in discrete cytoplasmic regions within HeLa cells”. “Ac-Val-Lys(methacryloyl)-Leu-Aib-Val-Lys(2-phenyl-2H-tetrazole-5-carbonyl)-Leu-NH2?” had a ring closure, yield after HPLC in data set [1] (setting [5]) of 41%.
